From patent publication US10005771B2, “Bicyclic derivatives having β2 adrenergic agonist and M3 muscarinic antagonist activities” (Almirall, S.A., priority 2014, dated 2018) come the findings set out here.

Assay [1] has as its target T1, human muscarinic M3 receptors (Homo sapiens, UniProt P20309).
T1 construct: purchased Perkin Elmer; host or cells: CHO-K1 cells
Nature of the assay: Human muscarinic M3 receptors binding assay ([3H]-NMS, CHO-K1 membranes). Conditions: membranes from CHO-K1 cells, [3H]-NMS radioligand, two hours incubation. As for the experimental part:
Test 2: Human Muscarinic M3 Receptors Binding Assays
The study of binding to human muscarinic M3 receptors was performed using commercial membranes (Perkin Elmer) prepared from CHO-K1 cells.
Radioligand binding experiments were conducted in 96 polypropylene well plates in a total volume of 200 μl. All reagents were dissolved in assay binding buffer (PBS with calcium and magnesium, SIGMA), except compounds that were dissolved in DMSO 100%. Non-specific binding (NSB) was measured in the presence of 1 μM atropine. [3H]-NM, used as the radioligand was incubated with membranes that express human muscarinic M3 at concentration of 4.9 μg/well.
After an incubation period of two hours with gentle shaking, 150 μl of the reaction mix were transferred to 96 GF/C filter plates (Millipore), previously treated with wash buffer (Tris 50 mM; NaCl 100 mM; pH: 7.4), containing 0.05% PEI (Sigma) during one hour. Bound and free [3H]-NMS were separated by rapid vacuum filtration in a manifold from Millipore and washed four times with ice cold wash buffer. After drying 30 min, 30 μl of OPTIPHASE Supermix were added to each well and radioactivity quantified using a Microbeta microplate scintillation counter.
The affinity of each test compound to the receptor was determined by using ten different concentrations ran in duplicate. IC50s were calculated using Activity Base software from IDBS and the four parameters-log equation.

Assay [2] concerns the target T2, human adrenergic β2 receptor (Homo sapiens, UniProt P07550).
T2 construct: purchased Perkin Elmer; host or cells: Sf9 cells
Nature of the assay: Human adrenergic β2 receptor binding assay (3H-CGP12177, Sf9 membranes). Conditions: membranes from Sf9 cells, 0.6 nM 3H-CGP12177, 60 minutes at room temperature. As for the experimental part:
Test 1: Human Adrenergic β1 and β2 Receptor Binding Assays
The study of binding to human adrenergic beta1 and beta2 receptors was performed using commercial membranes prepared from Sf9 cells where they are overexpressed (Perkin Elmer). The membrane suspensions (16 μg/well for beta1 and 5 μg/well for beta2) in assay buffer (75 mM Tris/HCl with 12.5 mM MgCl2 and 2 mM EDTA pH=7.4) were incubated with 0.14 or 0.6 nM of 3H-CGP12177 (Amersham) for beta 1 and beta 2 receptors respectively in a final volume of 250 μl, in GFC Multiscreen 96 well plates (Millipore) previously treated with assay buffer containing 0.3% PEI (Sigma). Non specific binding was measured in the presence of 1 μM propanolol. Incubation was maintained for 60 minutes at room temperature and with gentle shaking. The binding reactions were terminated by filtration and washing with 2.5 volumes of Tris/HCl 50 mM pH=7.4. The affinity of each test compound to the receptor was determined by using ten different concentrations ran in duplicate. IC50s were calculated using Activity Base software from IDBS and the four parameters-log equation.

T1 sequence (P20309 whole entry): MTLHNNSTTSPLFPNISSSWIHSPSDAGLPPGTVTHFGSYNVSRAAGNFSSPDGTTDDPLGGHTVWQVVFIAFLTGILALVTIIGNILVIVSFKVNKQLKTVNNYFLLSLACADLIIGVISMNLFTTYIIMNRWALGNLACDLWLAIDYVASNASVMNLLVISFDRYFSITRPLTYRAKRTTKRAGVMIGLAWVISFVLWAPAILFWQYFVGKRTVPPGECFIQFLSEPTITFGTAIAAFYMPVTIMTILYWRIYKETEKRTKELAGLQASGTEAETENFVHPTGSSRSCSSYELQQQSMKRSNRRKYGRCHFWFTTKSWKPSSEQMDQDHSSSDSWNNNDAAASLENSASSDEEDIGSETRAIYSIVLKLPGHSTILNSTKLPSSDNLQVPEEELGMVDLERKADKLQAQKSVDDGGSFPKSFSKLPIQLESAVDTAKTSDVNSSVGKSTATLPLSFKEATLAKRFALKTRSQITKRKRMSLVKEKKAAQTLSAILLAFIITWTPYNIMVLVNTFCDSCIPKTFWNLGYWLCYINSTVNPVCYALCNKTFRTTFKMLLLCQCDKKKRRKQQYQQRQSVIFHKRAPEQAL
T2 sequence (P07550 whole entry): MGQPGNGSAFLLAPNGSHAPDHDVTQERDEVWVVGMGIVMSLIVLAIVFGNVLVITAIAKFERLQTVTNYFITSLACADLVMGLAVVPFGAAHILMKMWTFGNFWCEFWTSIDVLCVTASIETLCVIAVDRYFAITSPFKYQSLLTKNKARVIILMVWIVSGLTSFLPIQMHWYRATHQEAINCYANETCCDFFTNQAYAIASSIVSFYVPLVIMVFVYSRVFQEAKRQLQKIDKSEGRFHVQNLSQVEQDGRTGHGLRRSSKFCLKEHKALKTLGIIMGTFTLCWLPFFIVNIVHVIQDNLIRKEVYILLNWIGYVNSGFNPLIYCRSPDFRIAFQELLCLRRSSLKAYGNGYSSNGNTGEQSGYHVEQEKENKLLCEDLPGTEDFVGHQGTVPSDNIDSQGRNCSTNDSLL

As for `O=C(O[C@H]1CN2CCC1CC2)C1(c2cccc(CCCCn3c(=O)oc4cc(CNC[C@H](O)c5ccc(O)c6[nH]c(=O)ccc56)ccc43)c2)CCCCC1` [Example 1, (3R)-1-azabicyclo[2.2.2]oct-3-yl 1-(3-{4-[6-({[(2R)-2-hydroxy-2-(8-hydroxy-2-oxo-1,2-dihydroquinolin-5-yl)ethyl]amino}methyl)-2-oxo-1,3-benzoxazol-3(2H)-yl]butyl}phenyl)cyclohexanecarboxylate], the concentration for half-maximal inhibition (IC50) in assay [1] turned out to be 1.6 nM; in assay [2] it was 4.3 nM.
The like results for `COc1cc(NC(=O)CCCc2cccc(C3(C(=O)O[C@H]4CN5CCC4CC5)CCCCC3)c2)c(Cl)cc1CNC[C@H](O)c1ccc(O)c2[nH]c(=O)ccc12` [Example 2, (3R)-1-azabicyclo[2.2.2]oct-3-yl 1-[3-(4-{[2-chloro-4-({[(2R)-2-hydroxy-2-(8-hydroxy-2-oxo-1,2-dihydroquinolin-5-yl)ethyl]amino}methyl)-5-methoxyphenyl]amino}-4-oxobutyl)phenyl]cyclohexanecarboxylate] were, in that order, 0.22 nM and 3 nM.
Consider `O=C(CCCc1cccc(C2(C(=O)O[C@H]3CN4CCC3CC4)CCCCC2)c1)N[C@H]1CC[C@H](CNC[C@H](O)c2ccc(O)c3[nH]c(=O)ccc23)CC1` [Example 3, (3R)-1-azabicyclo[2.2.2]oct-3-yl 1-[3-(4-{[trans-4-({[(2R)-2-hydroxy-2-(8-hydroxy-2-oxo-1,2-dihydroquinolin-5-yl)ethyl]amino}methyl)cyclohexyl]amino}-4-oxobutyl)phenyl]cyclohexanecarboxylate], for which the values for the IC50 in assay [1] and in assay [2] were 1.7 nM and 4.2 nM, respectively.
The like results for `COc1cc(OCC(=O)N(C)CCCc2cccc(C3(C(=O)O[C@H]4CN5CCC4CC5)CCCCC3)c2)c(Cl)cc1CNC[C@H](O)c1ccc(O)c2[nH]c(=O)ccc12` [Example 4, (3R)-1-azabicyclo[2.2.2]oct-3-yl 1-(3-{3-[{[2-chloro-4-({[(2R)-2-hydroxy-2-(8-hydroxy-2-oxo-1,2-dihydroquinolin-5-yl)ethyl]amino}methyl)-5-methoxyphenoxy]acetyl}(methyl)amino]propyl}phenyl)cyclohexanecarboxylate] were, in that order, 0.74 nM and 6.6 nM.
The corresponding values for `O=C(O[C@H]1CN2CCC1CC2)C1(c2cccc(CCCCn3nnc4cc(CNC[C@H](O)c5ccc(O)c6[nH]c(=O)ccc56)ccc43)c2)CCCCC1` [Example 5, (3R)-1-azabicyclo[2.2.2]oct-3-yl 1-(3-{4-[5-({[(2R)-2-hydroxy-2-(8-hydroxy-2-oxo-1,2-dihydroquinolin-5-yl)ethyl]amino}methyl)-1H-1,2,3-benzotriazol-1-yl]butyl}phenyl)cyclohexanecarboxylate] are 1.1 nM and 28 nM.
As to `O=C(CCCc1cccc(C2(C(=O)O[C@H]3CN4CCC3CC4)CCCCC2)c1)NCCCCCNC[C@H](O)c1ccc(O)c2[nH]c(=O)ccc12` [Example 7, (3R)-1-azabicyclo[2.2.2]oct-3-yl 1-(3-{4-[(5-{[(2R)-2-hydroxy-2-(8-hydroxy-2-oxo-1,2-dihydroquinolin-5-yl)ethyl]amino}pentyl)amino]-4-oxobutyl}phenyl)cyclo hexanecarboxylate], the values for the IC50 in assay [1] and in assay [2] were 1.5 nM and 6.7 nM, respectively.
The like results for `COc1cc(C(=O)NCCCCc2cccc(C3(C(=O)O[C@H]4CN5CCC4CC5)CCCCC3)c2)c(Cl)cc1CNC[C@H](O)c1ccc(O)c2[nH]c(=O)ccc12` [Example 9, (3R)-1-azabicyclo[2.2.2]oct-3-yl 1-[3-(4-{[2-chloro-4-({[(2R)-2-hydroxy-2-(8-hydroxy-2-oxo-1,2-dihydroquinolin-5-yl)ethyl]amino}methyl)-5-methoxybenzoyl]amino}butyl)phenyl]cyclohexanecarboxylate] were, in that order, 0.95 nM and 3.5 nM.
The corresponding values for `COc1cc(OCC(=O)OCCCc2cccc(C3(C(=O)O[C@H]4CN5CCC4CC5)CCCCC3)c2)c(Cl)cc1CNC[C@H](O)c1ccc(O)c2[nH]c(=O)ccc12` [Example 10, (3R)-1-azabicyclo[2.2.2]oct-3-yl 1-{3-[3-({[2-chloro-4-({[(2R)-2-hydroxy-2-(8-hydroxy-2-oxo-1,2-dihydroquinolin-5-yl)ethyl]amino}methyl)-5-methoxyphenoxy]acetyl}oxy)propyl]phenyl}cyclohexanecarboxylate] are 0.88 nM and 7.3 nM.
Turning to `O=C(CCCc1cccc(C2(C(=O)O[C@H]3CN4CCC3CC4)CCCCC2)c1)Nc1ccc(CNC[C@H](O)c2ccc(O)c3[nH]c(=O)ccc23)nc1` [Example 11, (3R)-1-azabicyclo[2.2.2]oct-3-yl 1-[3-(4-{[6-({[(2R)-2-hydroxy-2-(8-hydroxy-2-oxo-1,2-dihydroquinolin-5-yl)ethyl]amino}methyl)pyridin-3-yl]amino}-4-oxobutyl)phenyl]cyclohexanecarboxylate], the IC50 in assay [1] came to 0.49 nM; in assay [2] it was 23 nM.
The like results for `COc1cc(C(=O)N(C)CCCc2cccc(C3(C(=O)O[C@H]4CN5CCC4CC5)CCCCC3)c2)c(Cl)cc1CNC[C@H](O)c1ccc(O)c2[nH]c(=O)ccc12` [Example 12, (3R)-1-azabicyclo[2.2.2]oct-3-yl 1-(3-{3-[[2-chloro-4-({[(2R)-2-hydroxy-2-(8-hydroxy-2-oxo-1,2-dihydroquinolin-5-yl)ethyl]amino}methyl)-5-methoxybenzoyl](methyl)amino]propyl}phenyl)cyclohexanecarboxylate] were, in that order, 2.1 nM and 10 nM.
The corresponding values for `COc1cc(C(=O)OCCCc2cccc(C3(C(=O)O[C@H]4CN5CCC4CC5)CCCCC3)c2)c(Cl)cc1CNC[C@H](O)c1ccc(O)c2[nH]c(=O)ccc12` [Example 13, 3-[3-(1-{[(3R)-1-azabicyclo[2.2.2]oct-3-yloxy]carbonyl}cyclohexyl)phenyl]propyl 2-chloro-4-({[(2R)-2-hydroxy-2-(8-hydroxy-2-oxo-1,2-dihydroquinolin-5-yl)ethyl]amino}methyl)-5-methoxybenzoate] are 0.62 nM and 4.4 nM.
For `COc1cc(OCC(=O)OC2CCC(Cc3cccc(C4(C(=O)O[C@H]5CN6CCC5CC6)CCCCC4)c3)CC2)c(Cl)cc1CNC[C@H](O)c1ccc(O)c2[nH]c(=O)ccc12` (stereo partly drawn) [Example 14, (3R)-1-azabicyclo[2.2.2]oct-3-yl 1-(3-{[4-({[2-chloro-4-({[(2R)-2-hydroxy-2-(8-hydroxy-2-oxo-1,2-dihydroquinolin-5-yl)ethyl]amino}methyl)-5-methoxyphenoxy]acetyl}oxy)cyclohexyl]methyl}phenyl)cyclohexanecarboxylate], the IC50 in assay [1] amounted to 7.1 nM; in assay [2] it was 9 nM.
The corresponding values for `COc1cc(NC(=O)CCCc2cccc(C3(C(=O)OCC45CCN(CC4)CC5)CCCCC3)c2)c(Cl)cc1CNC[C@H](O)c1ccc(O)c2[nH]c(=O)ccc12` [Example 18, 1-azabicyclo[2.2.2]oct-4-yl methyl 1-[3-(4-{[2-chloro-4-({[(2R)-2-hydroxy-2-(8-hydroxy-2-oxo-1,2-dihydroquinolin-5-yl)ethyl]amino}methyl)-5-methoxyphenyl]amino}-4-oxobutyl)phenyl]cyclohexanecarboxylate] are 0.14 nM and 2.3 nM.

In general, IC50 refers to the point on the concentration scale where inhibition reaches its midpoint. A high value points to a need for much substance.
